Experimental data as given in patent publication US12691092B2, “Method for reducing cutaneous skin scarring by pre-emptive priming and compounds and compositions for its implementation” (SOS SCIENCE OF SKIN LTD, priority 2020, dated 2026).

Experiments:
mast cells (MC) = experiment: Mast cell identification by MCT, MCC and CKit immunohistochemical markers in scar biopsies (double-blind placebo-controlled punch-biopsy trial); assay type: in vivo, human
Experimental: A double-blind randomized placebo-controlled trial was conducted using a temporal punch-biopsy model. The punch biopsy and topical application methodology used in the study is illustrated in FIG. 1, namely showing pre-injury pre-emptive priming (7-days), pre-injury pre-emptive priming (3-days), day of injury (immediate application on day 0), post-injury (delayed 2 weeks post injury) including biopsy time points and time of topical applications. Each group applied both placebo and topical formulations twice daily for the duration of the study until week 8, with only the starting time point differing between groups Participants were split into 4 groups (n=10 in each group) in order to compare different modes (timings) of commencement of the topical application: • Group-1: Pre-emptive Priming (7-days): pre-injury • Group-2: Pre-emptive Priming (3-days): pre-injury • Group-3: Immediate (0-day): day-of-injury • Group-4: Delayed (14-days): post-injury Clinical quantitative devices were used to objectively monitor cutaneous healing at weekly intervals and punch biopsies were performed on day 0 (uninjured skin) and at weeks 4 and 8 for protein and gene expression analyses. In the trial, topical EGCG and a placebo topical were applied twice daily for the duration of the trial until week 8 with only the starting time points differing between groups. Clinical and experimental analysis involved use of non-invasive devices as well as protein and gene studies. Excisional skin biopsies in upper arms were evaluated weekly with multiple quantitative devices over an 8-week period. Immunohistochemical analyses, mRNA sequencing and QRT-PCR were performed on tissue biopsies. MC identification was performed using mast cell tryptase (MCT), mast cell chymase (MCC) and CKit markers. […] The percentage differences between the change in placebo and EGCG for group-1 compared to group-2 was 58% (p=0.002), group-3 was 53% (p=0.003) and group-4 was 52% (p=0.005). […] The greatest difference was in group-1 compared to group-3 by 26% (p=0.02) and group-4 by 27% (p=0.02). Subsequent QRT-PCR analysis further confirmed down-regulation of MCT and MCC (p<0.05) in EGCG-treated samples at week-4 in all groups. MCT, MCC and CKit quantitative measurements are expressed in mm^2.

[1] = tested on: human skin scarring model; experiment: Blood flow by dynamic optical coherence tomography (D-OCT); assay type: in vivo
Experimental: (§1) A double-blind randomized placebo-controlled trial was conducted using a temporal punch-biopsy model. The punch biopsy and topical application methodology used in the study is illustrated in FIG. 1, namely showing pre-injury pre-emptive priming (7-days), pre-injury pre-emptive priming (3-days), day of injury (immediate application on day 0), post-injury (delayed 2 weeks post injury) including biopsy time points and time of topical applications. Each group applied both placebo and topical formulations twice daily for the duration of the study until week 8, with only the starting time point differing between groups Participants were split into 4 groups (n=10 in each group) in order to compare different modes (timings) of commencement of the topical application: • Group-1: Pre-emptive Priming (7-days): pre-injury • Group-2: Pre-emptive Priming (3-days): pre-injury • Group-3: Immediate (0-day): day-of-injury • Group-4: Delayed (14-days): post-injury Clinical quantitative devices were used to objectively monitor cutaneous healing at weekly intervals and punch biopsies were performed on day 0 (uninjured skin) and at weeks 4 and 8 for protein and gene expression analyses. In the trial, topical EGCG and a placebo topical were applied twice daily for the duration of the trial until week 8 with only the starting time points differing between groups. Blood flow analysis using non-invasive objective measures, including full-field laser perfusion imaging (FLPI) and dynamic optical coherence tomography (D-OCT), was undertaken. Clinical images and the corresponding FLPI and D-OCT images are shown in FIGS. 6a, 6b and 6c respectively.

CD31 = experiment: QRT-PCR for CD31; assay type: in vivo, human; conditions: week 4, all groups
Experimental: as §1, with “[…] Excisional skin biopsies in upper arms” for “In the trial, topical EGCG and a placebo topical”, “evaluated weekly” for “applied twice daily for the duration of the trial until week 8”, “multiple quantitative devices over an 8-week period. […]” for “only the starting time points differing between groups. Blood flow analysis using non-invasive objective measures, including full-field laser perfusion imaging (FLPI) and dynamic optical coherence tomography (D-OCT), was undertaken. Clinical images and the corresponding FLPI and D-OCT images are shown in FIGS. 6a, 6b and 6c respectively.”

MCT and MCC = experiment: QRT-PCR of MCT and MCC in scar biopsies; assay type: in vivo, human; conditions: week 4, all groups, p<0.05
Experimental: as §1, with “[…] Excisional skin biopsies in upper arms were evaluated weekly with multiple quantitative devices over an 8-week period. […] MCT, MCC” for “In the trial, topical EGCG”, “CKit quantitative measurements” for “a placebo topical were applied twice daily for the duration of the trial until week 8 with only the starting time points differing between groups. Blood flow analysis using non-invasive objective measures, including full-field laser perfusion imaging (FLPI) and dynamic optical coherence tomography (D-OCT), was undertaken. Clinical images and the corresponding FLPI and D-OCT images”, “expressed” for “shown”, “mm^2.” for “FIGS. 6a, 6b and 6c respectively.”

human skin models = conditions: ex vivo human skin models; cited from earlier work
[2] = tested on: human skin scarring model; experiment: Blood flow by full-field laser perfusion imaging (FLPI); assay type: in vivo
Experimental: as §1, with “Blood flow analysis using non-invasive objective measures, including full-field laser perfusion imaging (FLPI) and dynamic optical coherence tomography (D-OCT), was undertaken. Clinical images and the corresponding FLPI and D-OCT images are shown in FIGS. 6a, 6b and 6c respectively.” left out

[3] = weeks 4 and 8, all groups, p<0.01, topical twice daily

O=C(OC1Cc2c(O)cc(O)cc2OC1c1cc(O)c(O)c(O)c1)c1cc(O)c(O)c(O)c1 (single isomer, unassigned; (-)) [EGCG, (-)-epigallocatechin-3-gallate]
Resident mast cell population in primed uninjured skin (mast cells (MC); primed uninjured skin prior to injury): reduces the resident mast cell population | MCC: larger difference of group-2 than group-4 (mast cells (MC); week 4, 3-day priming vs delayed, p=0.009): 29% | MCT: percentage difference between the change in placebo and EGCG, group-1 compared to group-2 (mast cells (MC); week 4, 7-day pre-injury priming vs 3-day priming, p=0.002): 58% | MCT: percentage difference between the change in placebo and EGCG, group-1 compared to group-4 (mast cells (MC); week 4, 7-day pre-injury priming vs delayed (14 days), p=0.005): 52% | MCT: percentage difference between the change in placebo and EGCG, group-1 compared to group-3 (mast cells (MC); week 4, 7-day pre-injury priming vs immediate (day 0), p=0.003): 53% | MCC: greater difference of group-1 than group-4 (mast cells (MC); week 4, 7-day priming vs delayed, p=0.001): 41% | CKit: difference of group-1 compared to group-4 (mast cells (MC); week 4, 7-day priming vs delayed, p=0.02): 27% | MCC: greater difference of group-1 than group-3 (mast cells (MC); week 4, 7-day priming vs immediate, p=0.01): 29% | CKit: difference of group-1 compared to group-3 (mast cells (MC); week 4, 7-day priming vs immediate, p=0.02): 26% | CKit positive cells, EGCG-treated scars compared to placebo-treated scars (mast cells (MC); [3]): significantly fewer positive cells | MCC positive cells, EGCG-treated scars compared to placebo-treated scars (mast cells (MC); [3]): significantly fewer positive cells | MCT positive cells, EGCG-treated scars compared to placebo-treated scars (mast cells (MC); [3]): significantly fewer positive cells | D-OCT blood flow, EGCG-treated compared to placebo ([1]; group-1 weeks 1-8, group-2 weeks 1-8, group-3 weeks 1-5, 7, 8, group-4 weeks 4-7, p<0.01): significantly decreased | D-OCT blood flow, group comparison, groups 1-3 vs group-4 ([1]; week 1, p<0.001, p=0.006, p=0.001): reduced blood flow more than group-4 | D-OCT blood flow, group comparison, group-1 vs group-4 ([1]; week 2, p=0.016): greater difference than group-4 | D-OCT blood flow, group comparison, group-2 vs groups-3 and -4 ([1]; week 8, p=0.003, p=0.002): reduced more than groups-3 and -4 | QRT-PCR CD31, EGCG-treated samples compared to placebo (CD31): significant down regulation | QRT-PCR MCC expression, EGCG-treated samples (MCT and MCC): down-regulation | QRT-PCR MCT expression, EGCG-treated samples (MCT and MCC): down-regulation | Effect on scar growth (human skin models): inhibited growth and induced scar shrinkage | Mast cell (MC) numbers (human skin models): significantly reduced mast cell (MC) numbers | FLPI blood flow, EGCG arms compared to placebo arms ([2]; group-1 weeks 1 and 8, group-2 weeks 3, 7, 8, group-3 weeks 1-3, 6-8, group-4 weeks 3-8, p<0.01): significant reduction | FLPI blood flow, between group comparison, groups-1 and 3 vs group-4 ([2]; week 1, p<0.001, p=0.002): reduced blood flow more than group-4
